Experimental data taken from patent publication US10899733B2, “Inhibitors of PARPs that catalyze mono-ADP-ribosylation” (OREGON HEALTH & SCIENCE UNIVERSITY, priority 2017, dated 2021).
Values joined by “and” are separate entries in the source; they are usually repeats but may differ in a detail not shown here. Equal values may be shown once.

Columns and labels:
PARP10cat = biological target: T1, PARP10cat (Homo sapiens, UniProt Q53GL7); test: Inhibition of PARP10cat-mediated ADP-ribosylation of SRPK2 using NAD+ (100 μM); format: biochemical; details: for PARP11/PARP10: ratio of IC50 values, PARP11 over PARP10cat; for IC50 / PARP10cat pIC50 ± S.E.M.: ADP-ribosylation of SRPK2, NAD+ 100 μM; for increase in potency for PARP10 compared to comparator compound: 8 and 3 compared to unsubstituted 1, 14 compared to 3; for improvement in selectivity for PARP10 over PARP11 compared to parent compound: 12 vs 8, 14 vs 3, 20, 22 vs 16, 23, 24 vs 15
T1 sequence (Q53GL7 806-1025 limits assumed): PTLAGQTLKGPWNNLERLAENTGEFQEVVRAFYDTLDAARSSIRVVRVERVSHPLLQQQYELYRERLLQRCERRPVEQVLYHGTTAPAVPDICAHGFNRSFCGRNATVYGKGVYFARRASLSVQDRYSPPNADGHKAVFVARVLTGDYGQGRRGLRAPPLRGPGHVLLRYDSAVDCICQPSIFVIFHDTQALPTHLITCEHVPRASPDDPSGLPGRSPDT

PARP11 = biological target: T2, PARP11 (Homo sapiens, UniProt Q9NR21); test: Inhibition of PARP11-mediated ADP-ribosylation of SRPK2 using NAD+ (100 μM); format: biochemical; details: for IC50 / PARP11 pIC50 ± S.E.M.: ADP-ribosylation of SRPK2, NAD+ 100 μM
T2 sequence (Q9NR21 1-338): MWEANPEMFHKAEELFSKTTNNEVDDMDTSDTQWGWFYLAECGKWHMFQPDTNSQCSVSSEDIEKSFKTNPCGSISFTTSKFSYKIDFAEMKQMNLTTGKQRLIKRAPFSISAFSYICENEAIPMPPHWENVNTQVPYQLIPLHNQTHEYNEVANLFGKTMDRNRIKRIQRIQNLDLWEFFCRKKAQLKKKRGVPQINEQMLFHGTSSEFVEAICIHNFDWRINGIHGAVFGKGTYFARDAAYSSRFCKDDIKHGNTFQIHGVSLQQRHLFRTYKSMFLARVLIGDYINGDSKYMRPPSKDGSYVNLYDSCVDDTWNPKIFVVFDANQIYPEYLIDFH

[1] = Aqueous solubility observed when assaying; format: physicochemical; details: observed in assays

| Structure (SMILES) | PARP11/PARP10 (PARP10cat) | IC50 (PARP11) [µM] | PARP11 pIC50 ± S.E.M. (PARP11) | IC50 (PARP10cat) [µM] | PARP10cat pIC50 ± S.E.M. (PARP10cat) | selectivity for PARP10 over PARP11 (PARP10cat) | selectivity for PARP11 over PARP10 (PARP11) [fold] | increase in potency for PARP10 compared to comparator compound (PARP10cat) [fold] | improvement in selectivity for PARP10 over PARP11 compared to parent compound (PARP10cat) [fold] | aqueous solubility [1] | decrease in potency for PARP11 compared to compound 8 (PARP11) [fold] |
| --- | --- | --- | --- | --- | --- | --- | --- | --- | --- | --- | --- |
| O=C1NCCc2cc(Cc3ccccc3)ccc21 [Compound 7] | <0.33 | 16.7 | 4.78 ± 0.03 |  |  |  |  |  |  |  |  |
| O=C1NCCc2cc(-c3cccc(F)c3)ccc21 [Compound 9] | 4.4 | 6.1 | 5.22 ± 0.04 | 1.4 | 5.85 ± 0.03 |  |  |  |  |  |  |
| O=C1NCCc2c(Br)cccc21 [Compound 2] | 0.29 | 2.9 | 5.54 ± 0.04 | 10.1 | 4.99 ± 0.04 |  |  |  |  |  |  |
| Cc1c(-c2cncc(F)c2)ccc2c1CCNC2=O [Compound 23, 6-(5-fluoropyridin-3-yl)-5-methyl-3,4-dihydroisoquinolin-1(2H)-one] | 25 | 54.7 | 4.23 ± 0.03 | 2.2 | 5.66 ± 0.02 | 25 fold |  |  |  |  |  |
| O=C1NCCc2c1cccc2-c1ccccc1 [Compound 4] | 0.03 | 1.2 | 5.93 ± 0.04 | 35 | 4.46 ± 0.04 |  | 30 |  |  |  |  |
| Cc1c(-c2cnc3[nH]ccc3c2)ccc2c1CCNC2=O [Compound 18, 5-methyl-6-(1H-pyrrolo[2,3-b]pyridin-5-yl)-3,4-dihydroisoquinolin-1(2H)-one] | 17 | 12 | 4.92 ± 0.05 | 0.71 | 6.15 ± 0.03 | 17 fold |  |  |  |  |  |
| Cc1c(-c2ccccc2)ccc2c1CCNC2=O [Compound 14, 5-methyl-6-phenyl-3,4-dihydroisoquinolin-1(2H)-one] | 17 | 26.4 | 4.58 ± 0.07 |  | 5.80 ± 0.03 | 17 fold |  | 5 | 70 | aqueous solubility issues at higher concentrations |  |
| O=C1NCCc2cc(-c3ccccc3)ccc21 [Compound 8] | 3.5 | 8.7 | 5.06 ± 0.03 | 2.5 | 5.61 ± 0.03 | 4 fold |  | 28 |  |  |  |
| Cc1c(-c2ccnc(Cl)c2)ccc2c1CCNC2=O [Compound 21, 6-(2-chloropyridin-4-yl)-5-methyl-3,4-dihydroisoquinolin-1(2H)-one] | 15 | 27 | 4.57 ± 0.02 | 1.8 | 5.76 ± 0.03 | retained similar selectivity |  |  |  |  |  |
| Cc1cccc2c1CCNC2=O [Compound 3, 5-methyl-dq] | 0.24 | 2.1 | 5.67 ± 0.05 | 8.6 | 5.01 ± 0.03 | 0.24 fold |  | 8 |  |  |  |
| Cc1cccc(-c2ccc3c(c2)CCNC3=O)c1 [Compound 11] | 2.2 | 4.6 | 5.34 ± 0.03 | 2.1 | 5.67 ± 0.02 |  |  |  |  |  |  |
| Cc1c(-c2cncc(C(F)(F)F)c2)ccc2c1CCNC2=O [Compound 24, 5-methyl-6-(5-(trifluoromethyl)pyridin-3-yl)-3,4-dihydroisoquinolin-1(2H)-on] | 34 | 92.1 | 4.04 ± 0.03 |  | 5.57 ± 0.03 | 34 fold and 35 fold |  |  |  |  |  |
| Cc1c(-c2cnc3ccccc3c2)ccc2c1CCNC2=O [Compound 19, 5-methyl-6-(quinolin-3-yl)-3,4-dihydroisoquinolin-1(2H)-one] | 7.8 | 14 | 4.86 ± 0.04 | 1.8 | 5.75 ± 0.02 | 8 fold |  |  |  |  |  |
| Cc1ccc2c(c1)CCNC2=O [Compound 6] | 1.0 | 34.1 | 4.47 ± 0.06 | 33.1 | 4.48 ± 0.04 |  |  |  |  |  |  |
| O=C1NCCc2cc(-c3cccc(C(F)(F)F)c3)ccc21 [Compound 12] | 7.6 | 17.4 | 4.76 ± 0.04 | 2.3 | 5.65 ± 0.03 | 8 fold |  |  | 2 |  | 2 |
| O=C1NCCc2cc(-c3cccc(Cl)c3)ccc21 [Compound 10] | 5.3 | 5.8 | 5.24 ± 0.03 | 1.1 | 5.95 ± 0.02 |  |  |  |  |  |  |
| Cc1c(-c2ccncc2)ccc2c1CCNC2=O [Compound 16, 5-methyl-6-(pyridiny-4-yl)-3,4-dihydroisoquinolin-1(2H)-one] | 15 | 21.2 | 4.67 ± 0.04 | 1.4 | 5.84 ± 0.03 | 15 fold |  |  |  | increased solubility compared to 14 |  |
| Cc1c(-c2ccnc(F)c2)ccc2c1CCNC2=O [Compound 20, 6-(2-fluoropyridin-4-yl)-5-methyl-3,4-dihydroisoquinolin-1(2H)-one] | 24 | 44.7 | 4.35 ± 0.05 | 1.9 | 5.71 ± 0.03 | 24 fold |  |  | ~2 |  |  |
| Cc1c(-c2ccc3[nH]ccc3c2)ccc2c1CCNC2=O [Compound 17, 6-(1H-indol-5-yl)-5-methyl-3,4-dihydroisoquinolin-1(2H)-one] | 3.8 | 4.2 | 5.38 ± 0.04 | 1.1 | 5.96 ± 0.03 | 4 fold |  |  |  |  |  |
| NC(=O)c1ccc(Oc2ccc(C(N)=O)cc2)cc1 [OUL35, 4,4′-oxydibenzamide, reference compound] |  | 2.1 | 5.68 ± 0.03 |  |  |  |  |  |  |  |  |
| O=C1NCCc2cc(Br)ccc21 [Compound 5] | 0.79 | 13.5 | 4.87 ± 0.03 | 17.1 | 4.77 ± 0.03 |  |  |  |  |  |  |
| Cc1c(-c2cccnc2)ccc2c1CCNC2=O [Compound 15, 5-methyl-6-(pyridiny-3-yl)-3,4-dihydroisoquinolin-1(2H)-one] | 12 | 30.4 | 4.52 ± 0.06 | 2.5 | 5.60 ± 0.04 | 12 fold |  |  |  | increased solubility compared to 14 |  |
